Results from patent publication US20220177511A1, “SERIES OF HALOGENATED TETRACYCLIC TRITERPENE DERIVATIVES AND THEIR PREPARATION AND APPLICATION” (SHANGHAI KING-X BIOTECH CO., LTD, priority 2019, published 2022).
Converted amounts (≈) assume the structure as drawn. “Also recorded” adds a separate entry of the source. Like-named read-outs stand apart in the source and are kept apart here.

Columns and labels:
[1] = system: chronic heart failure mice; experiment: Pharmacodynamic comparison of LCZ696 and compound 2 in chronic heart failure mice (echocardiography); format: in vivo; settings: for CO / EF / FS / HR: Compound 2 group; for EF, day 28 vs day 0 (words) / short-axis shortening rate (FS %), day 28 vs day 0 (words): chronic heart failure mice, p<0.0005 (FIG. 8)
Source text: With EF<50%, chronic heart failure mice were selected.
The mice were detected by cardiac ultrasound after 28 days of administration.

[2] = Stability test of compound 2 in fresh rat whole blood; format: in vitro ADME; parameters: half-life: dose or concentration left out as unconfirmed
Procedure: Preparation of the tested product: Compound 2 was dissolved with an appropriate amount of dimethyl sulfoxide (DMSO) to obtain a 400 μM solution.
1) Fresh rat whole blood is added to the EP tube and shaken gently to mix.
2) Pre-incubate the EP tube in a water bath at 37° C. for 5 minutes.
3) Add Compound 2 and incubate at 37° C.
4) Every 50 μL of sample was taken from the sample tube to the stop tube (containing 5 μL internal standard, 5 μg/mL tolbutamide) at 0, 3 min, 6 min, 15 min, 30 min, and 60 min. 150 μL of acetonitrile was added and shaked to stop reaction, which was incubated in PBS system for 0 and 60 min.
5) Centrifuge for 5 min at 4° C. (13000 r/min), aspirate the supernatant, and analyze the sample.
50 μL of rat whole blood was added with 5 μL of internal standard working solution (5 μg/mL tolbutamide). 150 μL of acetonitrile was used to precipitate the proteins. The sample was centrifuged at 13,000 rpm and 4° C. for 5 min. The upper organic phase was taken and filtered with a 0.22 μM microporous membrane, which was then analyzed by LC-MS/MS. […]
The In residual rate of compound 2 in the incubation system was plotted against the incubation time, and the slope k was obtained by linear regression. T1/2 (min) was calculated according to the formula (T1/2=−0.693/k).

[3] = Metabolic stability in rat liver microsomes; format: in vitro ADME
[4] = Solubility test in water and FaSSIF; format: physicochemical; settings: thermodynamic from solid, 37° C., up to 24 hours, read-out: Solubility
[5] = Metabolic stability in human liver microsomes; format: in vitro ADME
Procedure: Preparation of the test sample: Compound 1 (prepared in Example 5), 2 (prepared in Example 4), and 5 (cycloastragenol, purchased from Chengdu Jintaihe Company) were dissolved with an appropriate amount of DMSO to obtain a concentration of 10 mM solution.
1) The compound was diluted with DMSO to 0.5 mM, and diluted to 1/20 with PBS before the experiment.
2) Human liver microsomes and potassium phosphate buffer were added to the EP tube respectively and mixed by gentle shaking.
3) Pre-incubate the EP tube in a metal bath at 37° C. for 5 minutes. 4) Compound 1, 2 or 5 were added and incubated at 37° C.
5) Take 100 μl of sample from the tube at 0, 60, 120, 240, and 360 minutes respectively, and add the sample to the stop tube (containing 100 μl of cooled acetonitrile solution). The mixture was shaken vigorously to terminate the reaction and then placed it in a −30° C. refrigerator until analysis.
6) Centrifuge at 14300 r/min and 4° C. for 10 minutes, aspirate the supernatant and place it in a −30° C. refrigerator until analysis.
Column: Shim-pack XR-ODS II, 2.0×75 mm; mobile phase: mobile phase B: aqueous solution containing 0.2% formic acid; mobile phase A: acetonitrile solution; mobile phase ratio: […]

[6] = chronic heart failure mice (FIG. 9)
[7] = compared with compound 5 (cycloastragenol)

CC(C)(O)[C@@H]1CC[C@](C)([C@H]2[C@@H](O)C[C@@]3(C)[C@@H]4C[C@H](O)[C@H]5C(C)(C)C(F)(F)CC[C@@]56C[C@@]46CC[C@]23C)O1 [Compound 2, (2aR,3R,4S,5aS,5bS,7S,7aR,11aR,12aS)-9,9-difluoro-3-((2R,5S)-5-(2-hydroxypropan-2-yl)-2-methyltetrahydrofuran-2-yl)-2a,5a,8,8-tetramethyltetradecahydro-1H,12H-cyclopenta[a]cyclopropa[e]phenanthrene-4,7-diol]
CO ([1]; Day 0): 33.39 ± 2.45 mL/min
EF ([1]; Day 0): 25.04 ± 1.87%
FS ([1]; Day 0): 9.65 ± 0.84 %
HR ([1]; Day 0): 564.5 ± 14.96 times/min
CO ([1]; Day 28): 48.09 ± 3.69 mL/min
EF ([1]; Day 28): 43.83 ± 3.62 %
FS ([1]; Day 28): 18.86 ± 2.17%
HR ([1]; Day 28): 579.3 ± 12.44 times/min
Cardiac output per minute (CO), day 28 vs day 0 (words) [1, 6]: significantly improved
Heart rate (HR), day 28 vs day 0 [1, 6]: no significant change
Cardiac output per minute (CO), day 28 vs day 0 (words) ([1]; chronic heart failure mice (FIG. 9), listed as compound 2): increased significantly
EF, day 28 vs day 0 (words) [1]: significantly improved
short-axis shortening rate (FS %), day 28 vs day 0 (words) [1]: significantly improved
EF, day 28 vs day 0 (words) ([1]; listed as compound 2): significantly increased
short-axis shortening rate (FS %), day 28 vs day 0 (words) ([1]; listed as compound 2): more significant
left ventricular ejection fraction EF % increased by ([1]; compound 2 group, after 28 days of administration): 75.04%
half-life ([2]; fresh rat whole blood, rat whole blood, 37° C., 0-60 min, read-out: In vitro T1/2): 10.7 h
stability in rat whole blood ([2]; incubation 3, 6, 15, 30 and 60 min): relatively stable
metabolic stability in rat liver microsomes [3, 7]: relatively stable; also recorded: more stable than cycloastragenol
half-life at 5 µM ([3]; liver microsomes, 5 μM compound, 37° C.): 8.63 h
Solubility ([4]; FaSSIF (pH 6.5)): 15 µg/mL (≈ 29.4 µM)
Solubility ([4]; Water): 2 µg/mL (≈ 3.92 µM)
metabolic stability in human liver microsomes [5, 7]: relatively stable; also recorded: more stable than cycloastragenol
half-life at 5 µM ([5]; human, liver microsomes, 5 μM compound, 1 mg/mL microsomes, 37° C.): 7.3 h
melting point: 189 to 192 °C
